Measured values reported in publication PMC9130538, “Amino acids in transmembrane helix 1 confer major functional differences between human and mouse orthologs of the polyspecific membrane transporter OCT1” (The Journal of Biological Chemistry, 2022).

How the values were obtained:
human OCT1 = target: T1, human OCT1 (Homo sapiens, UniProt O15245); test: Cellular uptake by HEK293 cells overexpressing human OCT1 (wildtype)
T1 sequence (O15245 1-554): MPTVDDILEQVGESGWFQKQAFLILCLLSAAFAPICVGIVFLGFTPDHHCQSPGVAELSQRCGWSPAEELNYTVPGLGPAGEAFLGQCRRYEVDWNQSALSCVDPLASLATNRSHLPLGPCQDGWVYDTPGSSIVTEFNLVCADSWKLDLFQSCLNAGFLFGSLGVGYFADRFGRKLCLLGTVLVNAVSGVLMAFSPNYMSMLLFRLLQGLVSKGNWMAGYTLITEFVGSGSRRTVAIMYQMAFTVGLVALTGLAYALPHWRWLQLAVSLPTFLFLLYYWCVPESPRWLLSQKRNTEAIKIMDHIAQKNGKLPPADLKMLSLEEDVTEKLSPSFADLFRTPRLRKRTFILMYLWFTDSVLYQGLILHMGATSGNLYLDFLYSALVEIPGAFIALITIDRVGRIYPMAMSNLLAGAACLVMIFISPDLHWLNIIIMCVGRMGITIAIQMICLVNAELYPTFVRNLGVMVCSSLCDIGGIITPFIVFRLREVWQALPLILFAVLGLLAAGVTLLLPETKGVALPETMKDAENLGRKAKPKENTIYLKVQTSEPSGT
Description: Generation and characterization of these cell lines has been described in detail before ([34], [48], [49]). Cells were cultured in Dulbecco’s Modified Eagle’s Medium supplemented with 10% fetal bovine serum, 100 U/ml penicillin, and 100 μg/ml streptomycin at 37 °C and 5% CO2 and were passaged twice a week.
At 48 h prior to the experiment, 6 × 10^5 cells were seeded per well in 12-well plates. When using transiently transfected cells, 5 × 10^5 T-REx-293 cells (Life Technologies) were seeded per well in 12-well plates 72 h prior to the experiment, and they were transfected 24 h later as described previously. Twelve-well plates were precoated with poly-D-lysine.
(§1) Cellular uptake experiments were performed at 37 °C and pH 7.4 using HBSS supplemented with 10 mM Hepes (in the following referred to as HBSS+). Cells were washed with 1 ml prewarmed (37 °C) HBSS+, and the uptake was initiated by adding 400 μl of prewarmed HBSS+ containing the substrate. Uptake was allowed for exactly 2 min and afterward stopped by adding 2 ml ice-cold HBSS+. Cells were washed twice with 2 ml ice-cold HBSS+ and lysed with 80% acetonitrile supplemented with internal standard, 0.1 N NaOH/0.1% SDS, or radioimmunoprecipitation buffer for LC–MS/MS, liquid scintillation counting, or fluorescence spectroscopy detection, respectively. Intracellular substrate concentrations were measured as described in the following and were then normalized to the amount of total protein in the samples as measured using the bicinchoninic acid assay ([51]).
For LC–MS/MS quantification of intracellular substrate concentrations, the cell lysate was centrifuged at 16,000g for 15 min, and 350 μl of supernatant was evaporated to dryness under nitrogen flow at 40 °C. The sample was reconstituted with 200 μl 0.1% formic acid, and between 2 and 30 μl were injected into the LC–MS/MS system (Table S1).
An API4000 QTRAP tandem mass spectrometer with ESI interface (AB SCIEX) was used, coupled to a Shimadzu Nexera X2 UHPLC system with LC 30AD pumps and SiL 30AC autosampler (Shimadzu).
Intracellular concentrations of radioactively labeled substrates MPP^+ and TEA^+ were quantified using liquid scintillation counting. To this end, 400 μl cell lysate was transferred into a 20 ml scintillation vial, 9 ml Aquasafe 500 Plus liquid scintillator (both Zinsser Analytics) was added, and the sample was measured in the Scintillation Counter LS6500 (Beckman Coulter).
For both analyses, SPSS Statistics, version 28 (SPSS, Inc, IBM) was used.

[1] = target: T2, human OCT1 with mouse TMH1 (human–mouse chimeric OCT1) (Homo sapiens, UniProt O15245, A31S/C36Y/F32L/I24L/L28I); test: Uptake by HEK293 cells transiently overexpressing chimeric human OCT1 carrying mouse TMH1; type: cell-based; conditions: 200 μM trospium, 2 min, transient transfection
T2 construct: expressed in transfected cells
Description: (§2) Human–mouse chimeric OCT1 constructs were generated using the overlap extension method ([50]) and have been characterized before ([34]). […] All constructs were validated by capillary sequencing of the complete open reading frame of OCT1 before transfection into HEK293 cells.
(§3) For transient transfection of OCT1 constructs into HEK293 cells for uptake experiments, 5 × 10^5 T-REx-293 cells (Life Technologies) were seeded per well in 12-well plates precoated with poly-D-lysine. […] At 48 h later, transfection efficacy was assessed microscopically by visualizing the GFP signal of the cotransfected GFP vector, and the cells were subsequently used for uptake experiments. […]
as §1, with “Cells were washed with 1 ml prewarmed (37 °C) HBSS+, and the uptake was initiated by adding 400 μl of prewarmed HBSS+ containing the substrate. Uptake was allowed for exactly 2 min and afterward stopped by adding 2 ml ice-cold HBSS+.” left out, “([51]). […]” for “([51]).”

human OCT1 Cys36Tyr = target: T3, human OCT1 Cys36Tyr (Homo sapiens, UniProt O15245, C36Y); test: Uptake by HEK293 cells overexpressing Cys36Tyr human OCT1; type: cell-based; conditions: 200 μM trospium, 2 min, transient transfection
T3 construct: expressed in transfected cells
Description: as §2, §3
as §1, with “Cells were washed with 1 ml prewarmed (37 °C) HBSS+, and the uptake was initiated by adding 400 μl of prewarmed HBSS+ containing the substrate. Uptake was allowed for exactly 2 min and afterward stopped by adding 2 ml ice-cold HBSS+.” left out, “([51]). […]” for “([51]).”

human OCT1 Phe32Leu = target: T4, human OCT1 Phe32Leu (Homo sapiens, UniProt O15245, F32L); test: Uptake by HEK293 cells overexpressing Phe32Leu human OCT1; type: cell-based; conditions: 200 μM trospium, 2 min, transient transfection, versus human wildtype
T4 construct: expressed in transfected cells
Description: as §2, §3
as §1, with “Cells were washed with 1 ml prewarmed (37 °C) HBSS+, and the uptake was initiated by adding 400 μl of prewarmed HBSS+ containing the substrate. Uptake was allowed for exactly 2 min and afterward stopped by adding 2 ml ice-cold HBSS+.” left out, “([51]). […]” for “([51]).”

mouse Oct1 Leu32Phe = target: T5, mouse Oct1 Leu32Phe (Mus musculus, UniProt O08966, L32F); test: Uptake by HEK293 cells overexpressing Leu32Phe mouse Oct1; type: cell-based; conditions: 200 μM trospium, 2 min, transient transfection
T5 construct: expressed in transfected cells
T5 sequence (O08966 whole entry L32F): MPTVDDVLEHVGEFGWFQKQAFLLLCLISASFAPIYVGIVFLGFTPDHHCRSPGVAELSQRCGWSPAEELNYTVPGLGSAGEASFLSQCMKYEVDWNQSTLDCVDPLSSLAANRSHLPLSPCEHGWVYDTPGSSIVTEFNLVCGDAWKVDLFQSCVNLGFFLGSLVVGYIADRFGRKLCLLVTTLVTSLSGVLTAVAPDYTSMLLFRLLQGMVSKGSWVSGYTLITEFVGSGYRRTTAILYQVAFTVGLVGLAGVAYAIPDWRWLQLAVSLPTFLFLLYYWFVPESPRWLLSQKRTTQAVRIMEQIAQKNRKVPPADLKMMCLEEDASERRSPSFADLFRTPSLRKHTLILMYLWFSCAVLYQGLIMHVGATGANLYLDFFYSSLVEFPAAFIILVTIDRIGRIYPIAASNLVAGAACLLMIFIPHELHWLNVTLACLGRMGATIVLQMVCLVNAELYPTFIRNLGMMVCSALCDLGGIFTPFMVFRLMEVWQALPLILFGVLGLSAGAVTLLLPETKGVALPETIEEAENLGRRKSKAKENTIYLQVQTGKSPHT
Description: as §2, §3
as §1, with “Cells were washed with 1 ml prewarmed (37 °C) HBSS+, and the uptake was initiated by adding 400 μl of prewarmed HBSS+ containing the substrate. Uptake was allowed for exactly 2 min and afterward stopped by adding 2 ml ice-cold HBSS+.” left out, “([51]). […]” for “([51]).”

[2] = human, estimated based on clinical data, ref [39]; cited from earlier work
[3] = human versus mouse OCT1, stably transfected HEK293

O=C(O[C@H]1C[C@H]2CC[C@@H](C1)[N+]21CCCC1)C(O)(c1ccccc1)c1ccccc1 [Trospium]
difference in uptake between human and mouse OCT1 at low concentration (human OCT1; 100 nM, 2 min, stably transfected HEK293): did not see differences in uptake
fold higher capacity (vmax) of human OCT1 than mouse Oct1 (human OCT1; [3]): 9.0 fold
fold lower affinity (KM) of human OCT1 than mouse Oct1 (higher affinity of mouse Oct1) (human OCT1; [3]): 10.6 fold
decrease of trospium uptake compared with human wildtype [1]: 91%
effect of Cys36Tyr on uptake of trospium (human OCT1 Cys36Tyr): did not affect
decrease of trospium uptake by Phe32Leu in human OCT1 (human OCT1 Phe32Leu): 79%
trospium uptake exceeding the uptake of the human ortholog (mouse Oct1 Leu32Phe; versus human wildtype OCT1): 2.8 fold
increase of trospium uptake by Leu32Phe in mouse Oct1 (mouse Oct1 Leu32Phe; versus mouse wildtype): sevenfold
clinically relevant (plasma) concentration [2]: 13.3 nM
